Test results taken from paper PMC11024357 (Frontiers in Pharmacology, 2024).
Where two headings read alike, the source gives them in different places.

Experiments:
[1] = Tacrolimus blood pharmacokinetics without and with omeprazole 20 mg or famotidine 20 mg in kidney transplant patients (CMIA, non-compartmental analysis); type: in vivo, human; conditions: for Effect of single 20 mg co-administration on tacrolimus pharmacokinetic parameters: kidney transplant patients, day 2 vs day 1; for the mean C0/D ratio: pre-dose concentration / daily dose; for C0h, Q1: first quartile; for C0h, Q2: median; for C0h, Q3: third quartile; for concentration at 2 h / concentration at 6 h / AUC(0-t) / Cmax / AUC: human, whole blood, oral; for concentration at 2 h: read-out: C2; for concentration at 6 h: read-out: C6; for AUC(0-t): read-out: AUC0-6; for AUC: read-out: AUC2-6
Excerpt: The study, randomized, non-blinded, comprised 24 stabilized adult patients between 1–12 months after kidney transplantation (NCT05061303), who received a kidney from a deceased donor. Inclusion criteria were time since kidney transplantation (1–12 months after kidney transplantation) and standard immunosuppressive regimen (tacrolimus, mycophenolate mofetil, prednisone/methylprednisolone/deflazacort). In this group, 2 individuals withdrew their informed consent and were excluded from study. Each randomized patient was admitted to the Department of Nephrology, Transplantology and Internal Diseases of Poznan University of Medical Sciences for 2 days (48 h). The study used the simple randomization method. One of the authors of the study (no the principal researcher) generated a randomized sequence for assigning patients to groups. The random component (computer-generated random numbers) was used in the sequence generation process. Figure 1 presented CONSORT flow chart. No participant changed the group during the study. Standard laboratory tests (creatinine, estimated glomerular filtration rate (eGFR), complete blood count, proteinuria, erythrocyturia) were performed during the first 2 days of participation in the study. In addition, the glomerular filtration rate (GFR) was calculated for each patient using The Chronic Kidney Disease Epidemiology Collaboration (CKD-EPI) creatinine equation to estimate GFR. […] Patients received tacrolimus once daily in the form of tacrolimus monohydrate prolonged-release tablets (Envarsus®, Chiesi Farmaceutici), registration numbers: EU/1/14/935/00, EU/1/14/935/004, EU/1/14/935/006, EU/1/14/935/007 or in the form of tacrolimus monohydrate prolonged-release hard capsules (Advagraf®, Astellas Pharma Europe), registration numbers: EU/1/07/387/001, EU/1/07/387/003, EU/1/07/387/011, EU/1/07/387/007. […] All patients before the start of the study achieved tacrolimus steady state. […] The results were used to obtain the values of pharmacokinetic parameters and statistical evaluation. No study-related adverse events were reported by patients, physicians, medical staff, or others during the study.
In order to establish the tacrolimus metabolism rate in the patients, the blood concentration normalized by the dose (C/D ratio) was calculated. The C0/D ratio can be calculated by dividing the tacrolimus pre-dose concentration (C0) by the corresponding daily tacrolimus dose (D). […] The fast metabolizers group included patients with a C/D ratio of <1.05 ng/mL*1/mg, whereas if the aforementioned ratio was ≥1.55 ng/mL*1/mg, the participants were described as slow metabolizers ([Tholking et al., 2014]).
Tacrolimus concentrations were determined using CMIA, by means of Alinity i analyser ([Mei et al., 2018]). Samples were stored frozen (−10°C or below) for no longer than 6 months. Each sample was thoroughly mixed prior to determining concentration, and 200 μL of each sample was pipetted into a centrifuge tube. Subsequently, the dispenser was filled with the appropriate volume of […] Tacrolimus Whole Blood Precipitation Reagent, followed by the removal of air bubbles from the dispenser. 200 μL of […] Tacrolimus Whole Blood Precipitation Reagent was added to the contents of the first centrifuge tube. Each individual tube was capped, mixed immediately after adding the reagent and centrifuged for 5–10 s. The tubes were then centrifuged again for 4 min. Each tube was uncapped and the supernatant was decanted (poured off) into a Graft Pre-Treatment Tube. They were then vortexed for 5–10 s and assayed for the concentrations of tacrolimus.
Calibration was performed in duplicate samples by testing Calibrators A, B, C, D, E and F. Control samples were prepared by mixing 150 μL of the patient sample and 150 μL of […] Tacrolimus Calibrator A. One sample for each control level was tested once every 24 h as a quality control test. […]

[2] = parameters: method as in Summary of Product Characteristics; conditions: ref Summary of Product Characteristics; cited from earlier work
[3] = no reference given; cited from earlier work
[4] = parameters: method as in Takahashi et al., 2007; conditions: ref Takahashi et al., 2007, cited from earlier work
[5] = parameters: method as in Susal and Dohler, 2019; conditions: ref Susal and Dohler, 2019, cited from earlier work
[6] = 2012, cited from earlier work
[7] = 0.0376 mg/kg, group II, no FA (day 1)
[8] = 0.0611 mg/kg, group I, no OM (day 1)
[9] = 20 mg, group II, FA 20 mg (day 2)
[10] = with omeprazole 20 mg (day 2) vs no omeprazole (day 1)

NC(N)=Nc1nc(CSCCC(N)=NS(N)(=O)=O)cs1 [famotidine]
Effect of single 20 mg co-administration on tacrolimus pharmacokinetic parameters [1]: no significant changes

COc1ccc2[nH]c([S+]([O-])Cc3ncc(C)c(OC)c3C)nc2c1 (stereo not shown) [omeprazole]
elimination half-life in the body [2]: shorter than an hour | Effect of single 20 mg co-administration on tacrolimus pharmacokinetic parameters [1]: significantly increases blood exposure of tacrolimus | bound to plasma proteins [3]: approximately 95%

C=CC[C@@H]1/C=C(\C)C[C@H](C)C[C@H](OC)[C@H]2O[C@@](O)(C(=O)C(=O)N3CCCC[C@H]3C(=O)O[C@H](/C(C)=C/[C@@H]3CC[C@@H](O)[C@H](OC)C3)[C@H](C)[C@@H](O)CC1=O)[C@H](C)C[C@@H]2OC [tacrolimus]
blood concentrations of tacrolimus ([4]; after switching omeprazole to oral rabeprazole 10 mg/day (day 21)): approximately 10 ng/mL | tacrolimus trough levels ([4]; on omeprazole, despite dose reductions from 17 to 9 mg/day): above 15 ng/mL | trough concentration of tacrolimus ([4]; post-transplant day 17, daily oral dose 17 mg, on ranitidine): 12.5 ng/mL | tacrolimus trough levels ([4]; post-transplant day 19, after start of intravenous omeprazole on day 18): 30.0 ng/mL | the mean C0/D ratio ([1]; Group I (omeprazole group), mean ± SD): 2.02 ± 1.14 ng/mL*1/mg | the mean C0/D ratio ([1]; Group II (famotidine group), mean ± SD): 2.49 ± 0.76 ng/mL*1/mg | C2 ([1]; group I, 2 h, OM 20 mg (day 2)): 11.90 ± 5.03 ng/mL | AUC 0–6 normalized by the dose ([1]; group I, OM 20 mg (day 2)): 1308.01 ± 595.19 (ng × h/mL)/(mg/kg) | AUC 2–6 normalized by the dose ([1]; group I, OM 20 mg (day 2)): 939.13 ± 453.89 (ng × h/mL)/(mg/kg) | AUC0-6 ([1]; group I, no OM (day 1)): 54.23 ± 10.48 ng·h/mL | AUC 2–6 normalized by the dose ([1]; group I, no OM (day 1)): 832.98 ± 415.81 (ng × h/mL)/(mg/kg) | AUC 0–6 normalized by the dose ([1]; group II, FA 20 mg (day 2)): 1784.71 ± 447.89 (ng × h/mL)/(mg/kg) | AUC2-6 ([1]; group II, FA 20 mg (day 2)): 44.05 ± 11.28 ng·h/mL | AUC 2–6 normalized by the dose ([1]; group II, FA 20 mg (day 2)): 1268.57 ± 329.31 (ng × h/mL)/(mg/kg) | C0h, Q1 ([1]; group II, FA 20 mg (day 2)): Q1: 5.60 ng/mL | C0h, Q2 ([1]; group II, FA 20 mg (day 2)): Q2: 7.30 ng/mL | C0h, Q3 ([1]; group II, FA 20 mg (day 2)): Q3: 7.95 ng/mL | AUC 0–6 normalized by the dose ([1]; group II, no FA (day 1)): 1677.84 ± 358.32 (ng × h/mL)/(mg/kg) | AUC 2–6 normalized by the dose ([1]; group II, no FA (day 1)): 1196.79 ± 279.50 (ng × h/mL)/(mg/kg) | C0h, Q1 ([1]; group II, no FA (day 1)): Q1: 5.25 ng/mL | C0h, Q2 ([1]; group II, no FA (day 1)): Q2: 6.50 ng/mL | C0h, Q3 ([1]; group II, no FA (day 1)): Q3: 8.80 ng/mL | concentration at 2 h ([1]; 0.0376 mg/kg, group II, 2 h, no FA (day 1)): 10.3 ± 4.64 ng/mL | concentration at 6 h [1, 7]: 10.8 ± 3.16 ng/mL | AUC(0-t) [1, 7]: 59.1 ± 16.6 ng·h/mL | concentration at 2 h ([1]; 0.0611 mg/kg, group I, 2 h, no OM (day 1)): 9.4 ± 2.5 ng/mL | concentration at 6 h [1, 8]: 9.94 ± 3.03 ng/mL | Cmax ([1]; 0.0611 mg/kg, group I, no OM (day 1), mean ± SD): 11.2 ± 2.34 ng/mL | AUC [1, 8]: 38.7 ± 7.7 ng·h/mL | Cmax ([1]; 20 mg, group I, OM 20 mg (day 2), mean ± SD): 13.1 ± 4.3 ng/mL | AUC(0-t) ([1]; 20 mg, group I, OM 20 mg (day 2)): 63.1 ± 19.5 ng·h/mL | Cmax [1, 9]: 13.1 ± 4.17 ng/mL | AUC(0-t) [1, 9]: 62.1 ± 15.9 ng·h/mL | concentration at 2 h ([1]; group I, 2 h, OM 20 mg (day 2)): 11.9 ± 1.59 ng/mL | concentration at 2 h ([1]; group I, 2 h, no OM (day 1)): 9.4 ± 0.79 ng/mL | concentration at 6 h ([1]; group I, OM 20 mg (day 2)): 10.3 ± 1.99 ng/mL | concentration at 2 h ([1]; group II, 2 h, FA 20 mg (day 2)): 11 ± 4.27 ng/mL | concentration at 6 h ([1]; group II, FA 20 mg (day 2)): 11 ± 3.53 ng/mL | AUC ([1]; group I, OM 20 mg (day 2)): 44.3 ± 11.5 ng·h/mL | Cmax ([1]; group II, no FA (day 1)): 12.7 ± 4.39 ng/mL | AUC ([1]; group II, no FA (day 1)): 42 ± 11.5 ng·h/mL | Increase of tacrolimus AUC0-6 [1, 10]: 16.30% | Increase of tacrolimus AUC0-6 normalized by the dose [1, 10]: 12.88% | Increase of tacrolimus AUC2-6 [1, 10]: 14.58% | Increase of tacrolimus AUC2-6 normalized by the dose [1, 10]: 12.74% | Increase of tacrolimus C2h [1, 10]: 26.60% | 6-year survival of the kidney graft ([5]; tacrolimus C0 4.0–4.9 ng/mL): 86.5% | 6-year survival of the kidney graft ([5]; tacrolimus C0 5.0–6.9 ng/mL in the first 3 years after transplantation): over 88% | 6-year survival of the kidney graft ([5]; tacrolimus C0 7.0–8.9 ng/mL in the first 3 years after transplantation): over 88% | 6-year survival of the kidney graft ([5]; tacrolimus C0 <4 ng/mL): 82.6% | 6-year survival of the kidney graft ([5]; tacrolimus C0 ≥9 ng/mL): 87.5% | increase in tacrolimus concentrations after omeprazole administration ([6]; kidney transplant patient, ref Zhao WFM. et al.): more than four-fold increase | tacrolimus blood trough level (C0) ([6]; postoperative day 3, 9 mg twice daily, before omeprazole, ref Zhao W. et al.): 19.6 ng/mL | tacrolimus blood trough level (C0) ([6]; postoperative day 4, 9 mg twice daily, before omeprazole, ref Zhao W. et al.): 29.2 ng/mL | serum creatinine (acute nephrotoxicity) ([6]; postoperative day 6, at tacrolimus C0 92 ng/mL with omeprazole, ref Zhao W. et al.): 160 µM | tacrolimus blood trough level (C0) ([6]; postoperative day 6, dose reduced to 7 mg, omeprazole given on day 5, ref Zhao W. et al.): 92 ng/mL | bound to plasma proteins [3]: approximately 99%
